Results: patent publication US7989422B2, “Antibacterial agents” (Alchemia Limited, priority 2005, dated 2011)

Legend:
Format in all cases: cell-based
[1] = test system: Staphylococcus aureus ATCC 25923; experiment: MIC against S. aureus, microbroth dilution in MH broth, without or with 5% horse serum; details: MIC class; S. aureus ATCC 25923
Protocol: (§1) Testing was conducted to determine the in vitro antimicrobial activity of a series of compounds synthesised by Alchemia Pty Ltd. The antimicrobial activity of each compound was determined at a single concentration (128 μg/mL) in Mueller Hinton (MH) broth against the ATCC type strain of Staphylococcus aureus. […] Compounds showing activity at concentrations up to 32-64 μg/mL in the presence/absence of serum were then tested for MIC activity against a standard set of 5 microorganisms comprising of ATCC type strains of MRSA, Enterococcus faecalis, Enterococcus faecium, VRE and Escherichia coli. CLSI (formerly NCCLS) microbroth dilution technique was used.
(§2) Each compound is initially dissolved in 100 μL of DMSO. Each solution is then diluted further in 0.9 mL of sterile MH broth to give a total volume of 1 mL (1000 μg/mL) This stock solution is then further diluted in MH broth to give a test solution with final concentration of 128 μg/mL using the following formula: 0.5 ml stock in 3.4 ml MH broth
(§3) Each test organism was subcultured from the −70° C. deep freezer onto horse blood agar. The plates were streaked to obtain isolated colonies and incubated at 35° C. in non-CO2 incubator for 24 hours. A second subculture was carried out onto horse blood agar. For each test organism, 1-2 colonies were selected from an 18-24 hour culture and inoculated into 2 ml sterile MH broth. The turbidity was adjusted to 0.5 McFarland standard.
(§4) A 1:10 dilution in MH broth (200 μL in 2 ml MH) of the 0.5 McFarland control was prepared. 5 μL of this diluted solution was used to inoculate the trays.
100 μL of sterile MH broth was added in columns 2-12. 200 μL of test solution was added in column 1. 100 μL was transferred in column 2 giving a ½ dilution. 100 μL from column 2 was then transferred to column 3 (¼ dilution). This dilution was carried on until column 12. A second tray containing the same test solution was inoculated in a similar manner using sterile MH broth with 5% heat inactivated horse serum. 5 μL of organism solution was then added to each well. The plates were then sealed and incubated at 35° C. in a non-CO2 incubator for 18-24 hours. The plates were examined for growth after the incubation time.
(§5) If the test organism is sensitive to the compound in the broth the growth will be inhibited. Similarly, if the organism grows on the antibiotic containing medium then it is resistant to this particular antibiotic.

[2] = test system: Enterococcus faecium ATCC 35667; experiment: MIC against E. faecium, microbroth dilution; details: MIC class
Protocol: as §1, §2, §3, §4
(§6) The trays were prepared in a similar way as mentioned above and incubated at 35° C. in a non-CO2 incubator for 18-24 hours. The plates were examined for growth after the incubation time.
(§7) After 18-24 hour incubation 5 μL from each well was then inoculated onto horse blood agar and incubated for 18-24 hours at 35° C. in a non-CO2 incubator.
as §5

[3] = test system: Enterococcus faecalis ATCC 29212; experiment: MIC against E. faecalis, microbroth dilution; details: MIC class
Protocol: as §1, §2, §3, §4, §6, §7, §5

[4] = test system: Staphylococcus aureus (MRSA) ATCC 33591; experiment: MIC against MRSA, microbroth dilution; details: MIC class
Protocol: as §1, §2, §3, §4, §6, §7, §5

[5] = test system: E. Faecium 51299 VanB; experiment: MIC against vancomycin-resistant enterococcus 51299 (VanB), microbroth dilution; details: MIC class; ATCC 51299 VanB
Protocol: as §1, §2, §3, §4, §6, §7, §5

Compound	S. Aureus 25923 activity [1]	E. Faecium 35667 activity [2]	E. Fecalis 29212 activity [3]	S. Aureus 33591 MRSA activity [4]	E. Faecium 51299 VanB activity [5]
NC(C(=O)Nc1nc2cc(C(F)(F)F)ccc2n1C1C(CO)OCC(NC(=O)Nc2ccc(Cl)c(C(F)(F)F)c2)C1O)c1ccc(-c2ccccc2)cc1 (centres unmarked) [Compound 236]	− (“−”: MIC (μg/mL): MIC > 64)	++ (“++”: MIC (μg/mL): MIC ≦ 16)	++ (“++”: MIC (μg/mL): MIC ≦ 16)	++ (“++”: MIC (μg/mL): MIC ≦ 16)	+ (“+”: MIC (μg/mL): 64 ≧ MIC > 16)
NC(Cc1ccc(-c2ccccc2)cc1)C(=O)Nc1nc2cc(C(F)(F)F)ccc2n1C1C(CO)OCC(NC(=O)Nc2ccc(Cl)c(C(F)(F)F)c2)C1O (centres unmarked) [Compound 237]	− (“−”: MIC (μg/mL): MIC > 64)	− (“−”: MIC (μg/mL): MIC > 64)	++ (“++”: MIC (μg/mL): MIC ≦ 16)	++ (“++”: MIC (μg/mL): MIC ≦ 16)	− (“−”: MIC (μg/mL): MIC > 64)
NC(CC(=O)Nc1nc2cc(C(F)(F)F)ccc2n1C1C(CO)OCC(NC(=O)Nc2ccc(Cl)c(C(F)(F)F)c2)C1O)c1ccc(-c2ccccc2)cc1 (centres unmarked) [Compound 238]	− (“−”: MIC (μg/mL): MIC > 64)	− (“−”: MIC (μg/mL): MIC > 64)	++ (“++”: MIC (μg/mL): MIC ≦ 16)	++ (“++”: MIC (μg/mL): MIC ≦ 16)	− (“−”: MIC (μg/mL): MIC > 64)
NC(C(=O)Nc1nc2cc(C(F)(F)F)ccc2n1C1C(CO)OCC(NS(=O)(=O)c2ccc(C(F)(F)F)cc2)C1O)c1ccc(-c2ccccc2)cc1 (centres unmarked) [Compound 240]	++ (“++”: MIC (μg/mL): MIC ≦ 16)	− (“−”: MIC (μg/mL): MIC > 64)	++ (“++”: MIC (μg/mL): MIC ≦ 16)	++ (“++”: MIC (μg/mL): MIC ≦ 16)	− (“−”: MIC (μg/mL): MIC > 64)
NC(Cc1ccc(-c2ccccc2)cc1)C(=O)Nc1nc2cc(C(F)(F)F)ccc2n1C1C(CO)OCC(NS(=O)(=O)c2ccc(C(F)(F)F)cc2)C1O (centres unmarked) [Compound 241]	++ (“++”: MIC (μg/mL): MIC ≦ 16)	++ (“++”: MIC (μg/mL): MIC ≦ 16)	++ (“++”: MIC (μg/mL): MIC ≦ 16)	++ (“++”: MIC (μg/mL): MIC ≦ 16)	+ (“+”: MIC (μg/mL): 64 ≧ MIC > 16)
NC(CC(=O)Nc1nc2cc(C(F)(F)F)ccc2n1C1C(CO)OCC(NS(=O)(=O)c2ccc(C(F)(F)F)cc2)C1O)c1ccc(-c2ccccc2)cc1 (centres unmarked) [Compound 242]	++ (“++”: MIC (μg/mL): MIC ≦ 16)	++ (“++”: MIC (μg/mL): MIC ≦ 16)	++ (“++”: MIC (μg/mL): MIC ≦ 16)	++ (“++”: MIC (μg/mL): MIC ≦ 16)	− (“−”: MIC (μg/mL): MIC > 64)
O=C(Nc1ccc(Cl)c(C(F)(F)F)c1)NC1COC(CO)C(n2c(NCc3ccccc3)nc3cc(C(F)(F)F)ccc32)C1O (centres unmarked) [Compound 246]	++ (“++”: MIC (μg/mL): MIC ≦ 16)	+ (“+”: MIC (μg/mL): 64 ≧ MIC > 16)	++ (“++”: MIC (μg/mL): MIC ≦ 16)	++ (“++”: MIC (μg/mL): MIC ≦ 16)	+ (“+”: MIC (μg/mL): 64 ≧ MIC > 16)
O=C(Nc1ccc(Cl)c(C(F)(F)F)c1)NC1COC(CO)C(n2c(NCc3ccc(Cl)cc3)nc3cc(C(F)(F)F)ccc32)C1O (centres unmarked) [Compound 247]	++ (“++”: MIC (μg/mL): MIC ≦ 16)	− (“−”: MIC (μg/mL): MIC > 64)	++ (“++”: MIC (μg/mL): MIC ≦ 16)	++ (“++”: MIC (μg/mL): MIC ≦ 16)	++ (“++”: MIC (μg/mL): MIC ≦ 16)
CC(C)(C)c1ccc(CNc2nc3cc(C(F)(F)F)ccc3n2C2C(CO)OCC(NC(=O)Nc3ccc(Cl)c(C(F)(F)F)c3)C2O)cc1 (centres unmarked) [Compound 248]	++ (“++”: MIC (μg/mL): MIC ≦ 16)	++ (“++”: MIC (μg/mL): MIC ≦ 16)	++ (“++”: MIC (μg/mL): MIC ≦ 16)	++ (“++”: MIC (μg/mL): MIC ≦ 16)	++ (“++”: MIC (μg/mL): MIC ≦ 16)
O=C(Nc1ccc(Cl)c(C(F)(F)F)c1)NC1COC(CO)C(n2c(NCc3cccc(Oc4ccccc4)c3)nc3cc(C(F)(F)F)ccc32)C1O (centres unmarked) [Compound 249]	++ (“++”: MIC (μg/mL): MIC ≦ 16)	++ (“++”: MIC (μg/mL): MIC ≦ 16)	++ (“++”: MIC (μg/mL): MIC ≦ 16)	++ (“++”: MIC (μg/mL): MIC ≦ 16)	++ (“++”: MIC (μg/mL): MIC ≦ 16)
O=C(Nc1ccc(Cl)c(C(F)(F)F)c1)NC1COC(CO)C(n2c(NCc3ccc4ccccc4c3)nc3cc(C(F)(F)F)ccc32)C1O (centres unmarked) [Compound 251]	++ (“++”: MIC (μg/mL): MIC ≦ 16)	++ (“++”: MIC (μg/mL): MIC ≦ 16)	++ (“++”: MIC (μg/mL): MIC ≦ 16)	++ (“++”: MIC (μg/mL): MIC ≦ 16)	++ (“++”: MIC (μg/mL): MIC ≦ 16)
O=C(Nc1ccc(Cl)c(C(F)(F)F)c1)NC1COC(CO)C(n2c(Nc3ccc(Cl)cc3)nc3cc(C(F)(F)F)cc(Cl)c32)C1O (centres unmarked) [Compound 252]	+ (“+”: MIC (μg/mL): 64 ≧ MIC > 16)	− (“−”: MIC (μg/mL): MIC > 64)	+ (“+”: MIC (μg/mL): 64 ≧ MIC > 16)	− (“−”: MIC (μg/mL): MIC > 64)	− (“−”: MIC (μg/mL): MIC > 64)
O=C(Nc1ccc(Cl)c(C(F)(F)F)c1)NC1COC(CO)C(n2c(Nc3ccc(C(F)(F)F)cc3)nc3cc(C(F)(F)F)cc(Cl)c32)C1O (centres unmarked) [Compound 253]	− (“−”: MIC (μg/mL): MIC > 64)	− (“−”: MIC (μg/mL): MIC > 64)	+ (“+”: MIC (μg/mL): 64 ≧ MIC > 16)	− (“−”: MIC (μg/mL): MIC > 64)	− (“−”: MIC (μg/mL): MIC > 64)
O=C(Nc1ccc(Cl)c(C(F)(F)F)c1)NC1COC(CO)C(n2c(Nc3ccc(-c4ccccc4)cc3)nc3cc(C(F)(F)F)cc(Cl)c32)C1O (centres unmarked) [Compound 254]	++ (“++”: MIC (μg/mL): MIC ≦ 16)	− (“−”: MIC (μg/mL): MIC > 64)	− (“−”: MIC (μg/mL): MIC > 64)	++ (“++”: MIC (μg/mL): MIC ≦ 16)	− (“−”: MIC (μg/mL): MIC > 64)
O=C(Nc1ccc(Cl)c(C(F)(F)F)c1)NC1COC(CO)C(n2c(NCc3ccccc3)nc3cc(C(F)(F)F)cc(Cl)c32)C1O (centres unmarked) [Compound 255]	++ (“++”: MIC (μg/mL): MIC ≦ 16)	− (“−”: MIC (μg/mL): MIC > 64)	++ (“++”: MIC (μg/mL): MIC ≦ 16)	++ (“++”: MIC (μg/mL): MIC ≦ 16)	+ (“+”: MIC (μg/mL): 64 ≧ MIC > 16)
O=C(Nc1ccc(Cl)c(C(F)(F)F)c1)NC1COC(CO)C(n2c(NCc3ccc(Cl)cc3)nc3cc(C(F)(F)F)cc(Cl)c32)C1O (centres unmarked) [Compound 256]	− (“−”: MIC (μg/mL): MIC > 64)	− (“−”: MIC (μg/mL): MIC > 64)	++ (“++”: MIC (μg/mL): MIC ≦ 16)	− (“−”: MIC (μg/mL): MIC > 64)	++ (“++”: MIC (μg/mL): MIC ≦ 16)
